# Test results published in patent publication US20230346670A1, “Prebiotic Oral Care Compositions and Methods” (Colgate-Palmolive Company, priority 2020, published 2023).
# Marks after values point to notes of the source that are not given here.
# Tests used:
# Format in all cases: cell-based
# [1] = system: multi-species biofilm (beneficial/commensal species, periodontal pathogens, cariogenic pathogens); assay: Multi-species biofilm composition, relative proportions and group changes
# Method: Biofilms are grown vertically on Calcium Deficient Hydroxyapatite (CAD-HA) disks (Hitemco Medical, Old Bethpage, USA) using the Amsterdam Active Adhesion model. […] After this 24 h, disks are rinsed 3 times a day for 3 minutes (RT, 250 rpm), for 3 consecutive days, by transferring the lid containing the disks to a new 24-well plate containing 2 mL/well of the appropriate substrate solution. As a negative control, PBS (pH 5.7) without substrate supplementation is used. N-acetyl-D-glucosamine (NADG), α-D-lactose, D-(+)-trehalose and D-(+)-raffinose are selected to determine their effects on multi-species biofilm composition. Repeated rinsing of the biofilms with the substrates at a concentration of 1 M results in a significant decrease in absolute numbers in at least four of the pathogenic bacterial species tested in the assay, in comparison to the control, the results of which are described in Table 1 below. Note, NADG decreased absolute numbers of S. sobrinus. Absolute abundances of bacterial species are shown as mean ± SD (n = 3) logarithmic values of the genome equivalents per millilitre (log(Geq/mL)).
# F. nucleatum = assay: Multi-species biofilm composition, absolute abundance (Geq/mL); conditions: repeated rinsing
# Method: (§1) Biofilms are grown vertically on Calcium Deficient Hydroxyapatite (CAD-HA) disks (Hitemco Medical, Old Bethpage, USA) using the Amsterdam Active Adhesion model. Biofilms are allowed to establish during 24 h (37° C., 170 rpm) under microaerophilic conditions (6% O2, 7% CO2, 7% H2, 80% N2). After this 24 h, disks are rinsed 3 times a day for 3 minutes (RT, 250 rpm), for 3 consecutive days, by transferring the lid containing the disks to a new 24-well plate containing 2 mL/well of the appropriate substrate solution. As a negative control, PBS (pH 5.7) without substrate supplementation is used.
# (§2) N-acetyl-D-glucosamine (NADG), α-D-lactose, D-(+)-trehalose and D-(+)-raffinose are selected to determine their effects on multi-species biofilm composition. […] decrease in absolute numbers in at least four of the pathogenic bacterial species tested in the assay, in comparison to the control, the results of which are described in Table 1 below. Note, NADG decreased absolute numbers of S. sobrinus. Absolute abundances of bacterial species are shown as mean ± SD (n = 3) logarithmic values of the genome equivalents per millilitre (log(Geq/mL)).
# S. salivarius = assay: as above; conditions: repeated rinsing
# Method: as §1, §2
# S. mutans = assay: as above; conditions: repeated rinsing
# Method: as §1, §2
# V. parvula = assay: as above; conditions: repeated rinsing
# Method: as §1, §2
# A. viscosus = assay: as above; conditions: repeated rinsing
# Method: as §1, §2
# S. sanguinis = assay: as above; conditions: repeated rinsing
# Method: as §1, §2
# [2] = system: F. nucleatum virulence genes; assay: Virulence gene expression in multi-species biofilm (SYBR RT-qPCR); conditions: relative to control = 1, 2^-ΔΔCt, n = 3
# Method: as §1
# The virulence of the substrate-treated multi-species biofilms are evaluated by analyzing the relative expression of 33 genes that are recognized as being related to some form of virulence and from 4 periodontal pathogens.
# Expression of bacterial virulence genes is analyzed through SYBR RT-qPCR and normalized for bacterial housekeeping gene expression. […] These effects are illustrated in Tables 6a and 6b:
# Note, for Table 6c, fold changes in virulence gene expression are determined relative to the control condition through the 2^^-ΔΔCt method and are shown as the geometric mean (C.I.) (n = 3) of the 2^^-ΔΔCt values. All substrates are dissolved in PBS at a concentration of 1 M (upper part) or 1%(w/v) (lower part). Values between 0 and 1 represent relative downregulation, values >1 represent relative upregulation. […] NADG: N-acetyl-D-glucosamine; C.I.: 95% confidence interval.
# S. oralis = assay: Multi-species biofilm composition, absolute abundance (Geq/mL); conditions: for absolute abundance of S. oralis, mean ± SD log (Geq/mL): repeated rinsing
# Method: as §1
# (§3) N-acetyl-D-glucosamine (NADG), α-D-lactose, D-(+)-trehalose and D-(+)-raffinose are selected to determine their effects on multi-species biofilm composition. Repeated rinsing of the biofilms with the substrates at a concentration of 1 M results in a significant decrease in absolute numbers in at least four of the pathogenic bacterial species tested in the assay, in comparison to the control, the results of which are described in Table 1 below. Note, NADG decreased absolute numbers of S. sobrinus. Absolute abundances of bacterial species are shown as mean ± SD (n = 3) logarithmic values of the genome equivalents per millilitre (log(Geq/mL)).
# A. naeslundii = assay: as above; conditions: repeated rinsing
# Method: as §1, §3
# S. gordonii = assay: as above; conditions: repeated rinsing
# Method: as §1, §3
# S. mitis = assay: as above; conditions: repeated rinsing
# Method: as §1, §3
# S. sobrinus = assay: as above; conditions: repeated rinsing
# Method: as §1, §3
# P. gingivalis = assay: as above; conditions: repeated rinsing
# Method: as §1, §3
# P. intermedia = assay: as above; conditions: repeated rinsing
# Method: as §1, §3
# A. actinomycetemcomitans = assay: as above; conditions: repeated rinsing
# Method: as §1, §3
# [3] = Table 1a, substrate 1 M, listed as D-(+)-raffinose
# [4] = Table 3, separate experiments, concentration not given
smiles,measurement,setting,value
"OC[C@H]1O[C@H](OC[C@H]2O[C@H](O[C@]3(CO)O[C@H](CO)[C@@H](O)[C@@H]3O)[C@H](O)[C@@H](O)[C@@H]2O)[C@H](O)[C@@H](O)[C@H]1O [D-raffinose, D-(+)-raffinose]",relative proportion of beneficial or commensal species in biofilm,"[1]; Table 1a, substrate 1 M",95.86 (+/- 1.63)^∗ % (Geq/mL)
same,relative proportion of cariogenic pathogens in biofilm,"[1]; Table 1a, substrate 1 M",1.85 (+/- 0.68) % (Geq/mL)
same,relative proportion of periodontal pathogens in biofilm,"[1]; Table 1a, substrate 1 M",2.29 (+/- 1.40)^∗ % (Geq/mL)
same,relative proportion of beneficial or commensal species in biofilm,[1]; [3],95.86±1.63 % (Geq/mL)
same,relative proportion of cariogenic pathogens in biofilm,[1]; [3],1.85±0.68 % (Geq/mL)
same,relative proportion of periodontal pathogens in biofilm,[1]; [3],2.29±1.40 % (Geq/mL)
same,relative proportion of beneficials/commensals in biofilm,[1]; [4],64.27 (+/- 1.84) % (Geq/mL)
same,relative proportion of cariogenic pathogens in biofilm,[1]; [4],0.27 (+/- 0.09) % (Geq/mL)
same,relative proportion of periodontal pathogens in biofilm,[1]; [4],35.46 (+/- 1.82) % (Geq/mL)
same,"absolute abundance of F. nucleatum (Fn), mean ± SD log (Geq/mL)",F. nucleatum; substrate 1% (w/v),9.40 ± 0.10 log (Geq/mL)
same,"absolute abundance of F. nucleatum (Fn), mean ± SD log (Geq/mL)","F. nucleatum; substrate 1 M in PBS, n = 3",6.73 ± 0.06^∗ log (Geq/mL)
same,"absolute abundance of S. salivarius, mean ± SD log (Geq/mL)",S. salivarius; substrate 1% (w/v),2.65 ± 0.00 log (Geq/mL)
same,"absolute abundance of S. salivarius, mean ± SD log (Geq/mL)","S. salivarius; substrate 1 M in PBS, n = 3",6.29 ± 0.21^∗ log (Geq/mL)
same,"absolute abundance of S. mutans, mean ± SD log (Geq/mL)",S. mutans; substrate 1% (w/v),7.46 ± 0.16 log (Geq/mL)
same,"absolute abundance of S. mutans, mean ± SD log (Geq/mL)","S. mutans; substrate 1 M in PBS, n = 3",8.24 ± 0.17^∗ log (Geq/mL)
same,"absolute abundance of V. parvula (VP), mean ± SD log (Geq/mL)",V. parvula; substrate 1% (w/v),9.83 ± 0.09 log (Geq/mL)
same,"absolute abundance of V. parvula (VP), mean ± SD log (Geq/mL)","V. parvula; substrate 1 M in PBS, n = 3",9.88 ± 0.07 log (Geq/mL)
same,"absolute abundance of A. viscosus (Av), mean ± SD log (Geq/mL)",A. viscosus; substrate 1% (w/v),7.77 ± 0.14 log (Geq/mL)
same,"absolute abundance of A. viscosus (Av), mean ± SD log (Geq/mL)","A. viscosus; substrate 1 M in PBS, n = 3",7.08 ± 0.59 log (Geq/mL)
same,"absolute abundance of S. sanguinis, mean ± SD log (Geq/mL)",S. sanguinis; substrate 1% (w/v),8.56 ± 0.11 log (Geq/mL)
same,"absolute abundance of S. sanguinis, mean ± SD log (Geq/mL)","S. sanguinis; substrate 1 M in PBS, n = 3",6.39 ± 0.51 log (Geq/mL)
same,"fold change in ABC transp. perm. (ABC transporter permease) expression, geometric mean (95% C.I.)",[2]; substrate 1% (w/v),0.17 (0.04-0.65)^∗ fold
same,"fold change in EF-G expression, geometric mean (95% C.I.)",[2]; substrate 1% (w/v),0.12 (0.04-0.33)^∗ fold
same,"fold change in but. -coA transf. (butyrate-acetoacetate CoA-transferase) expression, geometric mean (95% C.I.)",[2]; substrate 1% (w/v),0.47 (0.06-3.98) fold
same,"fold change in hemin receptor expression, geometric mean (95% C.I.)",[2]; substrate 1% (w/v),0.12 (0.09-0.15)^∗ fold
same,"fold change in hemolysin expression, geometric mean (95% C.I.)",[2]; substrate 1% (w/v),0.51 (0.16-1.62)^∗ fold
same,"fold change in ompA expression, geometric mean (95% C.I.)",[2]; substrate 1% (w/v),0.70 (0.20-2.44) fold
same,"fold change in transposase expression, geometric mean (95% C.I.)",[2]; substrate 1% (w/v),0.78 (0.40-1.53) fold
same,"fold change in ABC transp. perm. (ABC transporter permease) expression, geometric mean (95% C.I.)",[2]; substrate 1 M,41.25 (11.65-146.10)^∗ fold
same,"fold change in EF-G expression, geometric mean (95% C.I.)",[2]; substrate 1 M,1.41 (0.70-2.83) fold
same,"fold change in but. -coA transf. (butyrate-acetoacetate CoA-transferase) expression, geometric mean (95% C.I.)",[2]; substrate 1 M,3.95 (0.89-17.60)* fold
same,"fold change in hemin receptor expression, geometric mean (95% C.I.)",[2]; substrate 1 M,18.04 (7.92-41.14)^∗ fold
same,"fold change in hemolysin expression, geometric mean (95% C.I.)",[2]; substrate 1 M,2.50 (1.07-5.83)^∗ fold
same,"fold change in ompA expression, geometric mean (95% C.I.)",[2]; substrate 1 M,1.07 (0.49-2.36) fold
same,"fold change in transposase expression, geometric mean (95% C.I.)",[2]; substrate 1 M,251.47 (75.27-840.20)^∗ fold
same,decrease in S. oralis numbers in comparison to the control,S. oralis; substrate 1% (w/v),~ 0.9 log(Geq/mL)
same,"absolute abundance of S. oralis, mean ± SD log (Geq/mL)",S. oralis; substrate 1% (w/v),5.98 ± 0.18^∗ log (Geq/mL)
same,"absolute abundance of S. oralis, mean ± SD log (Geq/mL)","S. oralis; substrate 1 M in PBS, n = 3",8.52 ± 0.17^∗ log (Geq/mL)
same,"absolute abundance of A. naeslundii (An), mean ± SD log (Geq/mL)",A. naeslundii; substrate 1% (w/v),7.62 ± 0.08 log (Geq/mL)
same,"absolute abundance of A. naeslundii (An), mean ± SD log (Geq/mL)","A. naeslundii; substrate 1 M in PBS, n = 3",5.32 ± 0.25^∗ log (Geq/mL)
same,"absolute abundance of S. gordonii, mean ± SD log (Geq/mL)",S. gordonii; substrate 1% (w/v),8.12 ± 0.06 log (Geq/mL)
same,"absolute abundance of S. gordonii, mean ± SD log (Geq/mL)","S. gordonii; substrate 1 M in PBS, n = 3",8.93 ± 0.31 log (Geq/mL)
same,"absolute abundance of S. mitis, mean ± SD log (Geq/mL)",S. mitis; substrate 1% (w/v),2.65 ± 0.00 log (Geq/mL)
same,"absolute abundance of S. mitis, mean ± SD log (Geq/mL)","S. mitis; substrate 1 M in PBS, n = 3",3.58 ± 1.31 log (Geq/mL)
same,"absolute abundance of S. sobrinus, mean ± SD log (Geq/mL)",S. sobrinus; substrate 1% (w/v),5.36 ± 0.20 log (Geq/mL)
same,"absolute abundance of S. sobrinus, mean ± SD log (Geq/mL)","S. sobrinus; substrate 1 M in PBS, n = 3",7.06 ± 0.15 log (Geq/mL)
same,"absolute abundance of P. gingivalis (Pg), mean ± SD log (Geq/mL)",P. gingivalis; substrate 1% (w/v),6.94 ± 0.21 log (Geq/mL)
same,"absolute abundance of P. gingivalis (Pg), mean ± SD log (Geq/mL)","P. gingivalis; substrate 1 M in PBS, n = 3",4.59 ± 0.45^∗ log (Geq/mL)
same,"absolute abundance of P. intermedia (Pi), mean ± SD log (Geq/mL)",P. intermedia; substrate 1% (w/v),7.83 ± 0.32 log (Geq/mL)
same,"absolute abundance of P. intermedia (Pi), mean ± SD log (Geq/mL)","P. intermedia; substrate 1 M in PBS, n = 3",5.21 ± 0.77^∗ log (Geq/mL)
same,"absolute abundance of A. actinomycetemcomitans (Aa), mean ± SD log (Geq/mL)",A. actinomycetemcomitans; substrate 1% (w/v),9.14 ± 0.12 log (Geq/mL)
same,"absolute abundance of A. actinomycetemcomitans (Aa), mean ± SD log (Geq/mL)","A. actinomycetemcomitans; substrate 1 M in PBS, n = 3",8.30 ± 0.29^∗ log (Geq/mL)
